According to patent USRE49873E1, “APP specific bace inhibitors (ASBIs) and uses thereof” (BUCK INSTITUTE FOR RESEARCH ON AGING, priority 2012, dated 2024):
Entries after “also recorded” stand apart in the source; their conditions may differ.

Experiments:
[1] = molecular target: T1, BACE cleavage of the P5-P5′ substrate (Homo sapiens, UniProt P56817); test: ASBI assay b): P5-P5′ fluorescence substrate cleavage assay; assay type: biochemical; conditions: flavonoids at 100 uM
T1 construct: purchased Sigma-Aldrich (kit); R&D (HTS description) CS0010; 931-AS-050
T1 sequence (P56817 46-501): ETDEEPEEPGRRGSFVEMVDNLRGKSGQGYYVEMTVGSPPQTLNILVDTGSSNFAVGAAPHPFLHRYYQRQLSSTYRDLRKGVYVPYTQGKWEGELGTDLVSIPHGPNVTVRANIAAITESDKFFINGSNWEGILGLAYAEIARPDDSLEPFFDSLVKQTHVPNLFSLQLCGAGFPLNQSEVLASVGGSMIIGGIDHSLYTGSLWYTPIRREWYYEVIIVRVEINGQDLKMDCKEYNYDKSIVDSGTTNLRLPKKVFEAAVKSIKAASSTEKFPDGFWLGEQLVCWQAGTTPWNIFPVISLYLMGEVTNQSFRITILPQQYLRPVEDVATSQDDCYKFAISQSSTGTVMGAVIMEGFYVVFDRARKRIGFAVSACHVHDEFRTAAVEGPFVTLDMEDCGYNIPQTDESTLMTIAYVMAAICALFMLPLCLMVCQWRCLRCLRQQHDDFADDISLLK
Experimental: As illustrated in the Examples, in one embodiment, an MBP-C125 APP695 wt fusion protein can be used as one of the substrates. The second substrate can be the commercially available P5-P5′ fluorescence substrate. Each of these substrates is incubated with recombinant BACE (R&D (cat#931-AS-050) in, for example, a 96 well plate format. For the MBP-C125 substrate the C-99 product from the BACE cleavage can be measured using an AlphaLisa assay as a readout. For the P5-5′ substrate the […] upon BACE cleavage can be used as the readout. An ASBI would inhibit the BACE cleavage of the MBP-C125 substrate while not being inhibitory of the fluorescence substrate. […]
A primary high-throughput screening (HTS) assay was set up for identification of ASBIs using a dual-substrate testing paradigm (FIGS. 3A & 3B). The previously reported (Sinha et al. (1999) Nature, 402: 537-540) BACE substrate the MBP-C125 APP695 wt fusion protein consisting of maltose binding protein fused to the carboxyterminal 125 amino acids of wild type APP, was used as the primary substrate; and the commercially available P5-P5′ fluorescence substrate, derived from the P5-P5′ residues of the BACE cleavage site of APP, was used as the secondary substrate. […]

[2] = test system: APP-Gal4 transactivation in HEK293T cells; test: APP-Gal4/Mint3/TAZ transactivation assay; assay type: cell-based; conditions: Mint3 and TAZ present, galangin at 10 μM
From the text: (§1) FIGS. 7A and 7B illustrate inhibition of APP-Gal4 and APLP2-Gal4 transactivation by galangin. […] This transactivation was inhibited by Galangin and BACE inhibitor IV. FIG. 7B: Potent transactivation of transcription was also achieved with APLP2 fused to the Gal4 DNA binding domain when both Mint3 and TAZ were present. This transactivation was inhibited by Galangin and BACE inhibitor IV. […] The normalized luciferase activity is expressed as a percentage of the DMSO treated control (FIGS. 7A, 7B). Error bars indicate SEM. (*, p<0.05; **, p<0.01; ***, p<0.001; n=3, student t test).
(§2) This assay system is described by Orcholski et al. (2011) J. Alzheimers Dis., 23(4):689-699. Transactivation is achieved upon transfection with Mint3 and Taz. The ASBI was expected to inhibit only the transactivation of APP-Gal4, not that of APLP2-Gal4. For these experiments cells were co-transfected with a Gal4-luciferase reporter plasmid (to measure transactivation), a beta-galactosidase plasmid (to normalize for transfection efficiency), and the test plasmids identified. The normalized luciferase activity was expressed as fold induction over transcription by APP-Gal4 alone (FIG. 7A), or as fold induction over APLP2-Gal4 alone (FIG. 7B).
(§3) HEK293T cells were co-transfected with five plasmids: (1) pG5E1B-luc, 0.3 μg; (2) pCMV-LacZ, 0.1 μg; (3) pMst-APP (APP-Gal4) or pcDNA3.1-APLP2-Gal4, 0.3 μg; (4) pCMV5-Mint3, 1.0 μg; (5) pEF-N-FLAG-TAZ, 1.0 μg. Cells were harvested 48 hr after transfection in 0.2 ml per well Cell Culture Lysis Buffer (Promega), and their luciferase and β-galactosidase activities were determined with the Promega luciferase assay kit and the Promega β-galactosidase assay kit, respectively. The luciferase activity was standardized by the β-galactosidase activity to control for transfection efficiency and general effects on transcription. Transfections were performed at 80-90% cofluency in six-well plates using Lipofectamine 2000 (Invitrogen).

[3] = test system: APLP2-Gal4 transactivation in HEK293T cells; test: APLP2-Gal4/Mint3/TAZ transactivation assay; assay type: cell-based; conditions: Mint3 and TAZ present, galangin at 10 μM
From the text: as §1, §2, §3

in vivo = test: in vivo; parameters: species or system mice; conditions: mouse
Experimental: The brain penetrance of galangin and progalangin were assessed in a standard PK comprising subcutaneous (Sub-Q) injection of 5 adult non-transgenic mice with 50 ul of a 5 mg/ml stock of compound in dimethylsulfoxide (DMSO) or a dose of 10 mg/kg for a 25 g mouse. Injected mice were anesthetized with ketamine/xylazine at 1, 2, 4, 6, and 8 hours and blood collected by cardiac puncture. The mice were then perfused with saline and brain tissue dissected and snap frozen on dry ice. Blood was centrifuged at 3000 rpm for 10 minutes and the plasma supernatant collected. Both plasma and the right hemibrain were sent to Integrated Analytical Solutions (IAS, Berkeley, Calif.) with a reference sample of compound for compound level analysis in tissue and plasma. The compound levels were determined using a LC-MS/MS approach.
CNS exposure studies were performed and consisted of a time-course design to collect heparinized plasma and brains. Following sc administration of the galangin or progalangin (compound-2) at 10 mg/kg, plasma and brain levels of the compounds were determined by quantitative LC/MS/MS methodology. Plasma samples were precipitated with acetonitrile:methanol (1:1) cocktail containing an internal standard. The brain samples were homogenized directly in ethylacetate or extracted from 5M guanidine homogenates with the liquid-liquid method. The resulting supernatant was evaporated to dryness and subjected to the LC/MS/MS analysis. For each compound 5 mice were used for the analysis. The brain-to-plasma ratios and plasma/brain Cmax levels were then determined (see, e.g., FIG. 8).

Q: Which “inhibition of BACE cleavage of the P5-P5′ substrate” value [1] does the source give for O=c1c(O)c(-c2ccccc2)oc2cc(O)cc(O)c12 [Galangin] here?
A: showing no inhibition of the P5-P5′ substrate

Q: What about the APP-Gal4 transactivation [2] of the same molecule?
A: inhibited

Q: What about the APP-Gal4 transactivation ([2]; listed as galangin) of the same molecule?
A: inhibit; also recorded: inhibits APP-Gal4 and APLP2-Gal4

Q: And the APLP2-Gal4 transactivation [3]?
A: inhibited

Q: And the APLP2-Gal4 transactivation ([3]; listed as galangin)?
A: inhibit; also recorded: inhibits APP-Gal4 and APLP2-Gal4

Q: What about the brain penetration (in vivo) of the same molecule?
A: did show some brain penetration

Q: What about the “plasma levels versus brain tissue levels” value (in vivo) of the same molecule?
A: Plasma levels were greater than brain tissue levels

Q: What about the “brain Cmax of galangin” value (in vivo; sc, 10 mg/kg) of the same molecule?
A: ~50 ng/g

Q: And the “brain to plasma ratio” value (in vivo; sc, 10 mg/kg)?
A: 1:10

Q: What about the concentration at 1 h (in vivo; sc, 10 mg/kg) of the same molecule?
A: 40 ng/g
